Read-outs that look alike come from different tables or passages of the source.
Legend:
PI3K p110δ/p85α (human) = PI3K p110δ/p85α (human) (Homo sapiens (Human), UniProt O00329); assay: PI3K p110δ/p85α (human), non-radioactive assay (HTRF); assay type: biochemical; conditions: read-out: IC50 (PI3Kdelta)
mTOR (human) = mTOR (human) (Homo sapiens (Human), UniProt P42345); assay: mTOR (human) kinase assay, [γ-33P-ATP] filter assay; assay type: biochemical
In short: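 Radiometric filter assay: enzyme in 50 mM HEPES pH 7.5, 1 mM EGTA, 0.01% Tween 20, 3 mM MnCl2, 2 mg/ml substrate with [γ-33P-ATP], started with MgATP. Incubated 40 min at room temperature, stopped with 3% phosphoric acid; incorporation measured on P30 filtermat by scintillation counting.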

PI3K p110α/p85α (human) = PI3K p110α/p85α (human) (Homo sapiens (Human), UniProt P42336); assay: PI3K p110α/p85α (human), non-radioactive assay (HTRF); assay type: biochemical; conditions: read-out: IC50 (PI3Kalpha)
[1] = target: purified human recombinant ATM (ataxia telangiectasia mutated), full length (Homo sapiens (Human), UniProt Q13315); assay: ATM kinase assay - determination of ATM inhibition (IC50 ATM), TR-FRET; assay type: biochemical
In short: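 Full-length enzyme, expressed in a mammalian cell line, pre-incubated 15 min with inhibitor in 25 mM HEPES pH 8.0, 10 mM Mg(CH3COO)2, 1 mM MnCl2, 0,1% BSA, 0,01% Brij 35, 5 mM DTT. Full-length cmyc-p53 (Sf21-expressed) and ATP then added, 30-35 min at 22° C. EDTA stop; p53 S15 phosphorylation read by TR-FRET antibodies.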

PI3K p110β/p85α (human) = PI3K p110β/p85α (human) (Homo sapiens (Human), UniProt P42338); assay: PI3K p110β/p85α (human), non-radioactive assay (HTRF); assay type: biochemical
In short: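 Human p110β/p85α incubated with 10 μM phosphatidylinositol 4,5-bisphosphate and MgATP for 30 min at room temperature, stopped with EDTA plus biotinylated PIP3. HTRF detection used a Eu-anti-GST antibody, GST-GRP1 PH domain and streptavidin-APC, with signal taken as 10000×(Em665nm/Em620nm).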

PI3K (p120γ) (human) = PI3K (p120γ) (human) (Homo sapiens (Human), UniProt P48736); assay: PI3K (p120γ) (human), non-radioactive assay (HTRF); assay type: biochemical; conditions: read-out: IC50 (PI3Kgamma)
In short: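 Enzyme was run with 10 μM phosphatidylinositol 4,5-bisphosphate, starting the reaction with MgATP at an unspecified level, for 30 min at room temperature. The stop used EDTA plus biotinylated PIP3, and detection used Eu-anti-GST, GST-GRP1 PH domain and streptavidin-APC. Signal was taken as HTRF = 10000×(Em665nm/Em620nm).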

[2] = tested on: phosphorylation of CHK2 (phospho-Thr68) in HCT116 cells; assay: Cellular pCHK2 assay: bleomycin-induced phosphorylation of CHK2 (phospho-Thr68), immunofluorescence high-content analysis; assay type: cell-based, human; conditions: Homo sapiens, HCT-116, 4 h, read-out: IC50 (pCHK2)
In short: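 HCT116 cells in DMEM with 10% FCS, incubated overnight at 37° C, then given compounds (1 nM to 30 μM, 0.5% DMSO) together with 10 μM bleomycin. Phospho-Thr68 CHK2 immunostained and imaged by high-content imager; nuclei with pCHK2 above background counted, cell count from propidium iodide DNA stain.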

Chain of PI3K p110δ/p85α (human) (O00329 whole entry): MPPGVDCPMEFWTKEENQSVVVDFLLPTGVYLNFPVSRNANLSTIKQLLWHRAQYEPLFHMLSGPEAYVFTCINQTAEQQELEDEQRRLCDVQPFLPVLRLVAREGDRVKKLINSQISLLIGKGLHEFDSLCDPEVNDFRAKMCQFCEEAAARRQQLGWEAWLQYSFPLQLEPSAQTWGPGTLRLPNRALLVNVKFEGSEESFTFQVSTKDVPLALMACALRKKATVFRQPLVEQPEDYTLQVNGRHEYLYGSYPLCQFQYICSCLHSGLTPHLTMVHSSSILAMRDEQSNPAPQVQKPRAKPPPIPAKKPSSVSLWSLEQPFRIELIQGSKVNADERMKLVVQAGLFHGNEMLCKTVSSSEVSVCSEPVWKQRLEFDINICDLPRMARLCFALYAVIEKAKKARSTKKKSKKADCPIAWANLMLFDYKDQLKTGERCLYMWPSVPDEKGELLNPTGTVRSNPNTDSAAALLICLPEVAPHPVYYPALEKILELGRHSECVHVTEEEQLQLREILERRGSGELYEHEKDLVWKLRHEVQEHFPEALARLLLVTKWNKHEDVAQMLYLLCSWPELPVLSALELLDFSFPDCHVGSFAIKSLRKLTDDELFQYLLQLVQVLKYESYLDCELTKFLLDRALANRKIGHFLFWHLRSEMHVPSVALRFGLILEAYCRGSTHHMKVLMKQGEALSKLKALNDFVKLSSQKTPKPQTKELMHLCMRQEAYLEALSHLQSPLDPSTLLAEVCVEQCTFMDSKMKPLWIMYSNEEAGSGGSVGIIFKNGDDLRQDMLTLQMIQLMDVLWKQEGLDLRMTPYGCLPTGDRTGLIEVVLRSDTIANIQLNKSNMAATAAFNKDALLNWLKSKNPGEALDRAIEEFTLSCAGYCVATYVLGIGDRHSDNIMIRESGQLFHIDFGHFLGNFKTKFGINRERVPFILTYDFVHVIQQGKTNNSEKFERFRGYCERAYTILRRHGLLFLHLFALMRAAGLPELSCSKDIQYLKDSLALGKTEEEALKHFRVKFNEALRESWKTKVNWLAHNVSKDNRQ
Chain of PI3K p110δ/p85α (human) (P27986 whole entry partner): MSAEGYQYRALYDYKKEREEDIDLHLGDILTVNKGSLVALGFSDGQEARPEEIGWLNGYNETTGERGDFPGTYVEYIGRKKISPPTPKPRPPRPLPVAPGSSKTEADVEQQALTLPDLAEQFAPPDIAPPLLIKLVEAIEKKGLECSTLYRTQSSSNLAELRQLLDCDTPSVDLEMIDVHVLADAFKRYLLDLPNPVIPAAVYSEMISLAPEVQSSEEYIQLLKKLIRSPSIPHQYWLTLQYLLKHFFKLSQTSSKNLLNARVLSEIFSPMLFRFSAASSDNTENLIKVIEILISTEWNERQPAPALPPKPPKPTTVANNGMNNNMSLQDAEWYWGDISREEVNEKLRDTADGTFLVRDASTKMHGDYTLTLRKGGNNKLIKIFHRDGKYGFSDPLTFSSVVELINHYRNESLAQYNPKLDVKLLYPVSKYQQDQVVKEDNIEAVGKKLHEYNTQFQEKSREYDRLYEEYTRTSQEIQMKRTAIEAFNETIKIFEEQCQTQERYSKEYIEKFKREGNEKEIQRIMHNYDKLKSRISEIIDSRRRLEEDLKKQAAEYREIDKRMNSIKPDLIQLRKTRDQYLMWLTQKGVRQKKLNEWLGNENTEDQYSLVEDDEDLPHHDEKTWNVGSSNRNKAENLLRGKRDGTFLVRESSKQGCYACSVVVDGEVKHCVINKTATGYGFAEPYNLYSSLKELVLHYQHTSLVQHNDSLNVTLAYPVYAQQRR
Chain of purified human recombinant ATM (ataxia telangiectasia mutated), full length (Q13315 whole entry, change not shown): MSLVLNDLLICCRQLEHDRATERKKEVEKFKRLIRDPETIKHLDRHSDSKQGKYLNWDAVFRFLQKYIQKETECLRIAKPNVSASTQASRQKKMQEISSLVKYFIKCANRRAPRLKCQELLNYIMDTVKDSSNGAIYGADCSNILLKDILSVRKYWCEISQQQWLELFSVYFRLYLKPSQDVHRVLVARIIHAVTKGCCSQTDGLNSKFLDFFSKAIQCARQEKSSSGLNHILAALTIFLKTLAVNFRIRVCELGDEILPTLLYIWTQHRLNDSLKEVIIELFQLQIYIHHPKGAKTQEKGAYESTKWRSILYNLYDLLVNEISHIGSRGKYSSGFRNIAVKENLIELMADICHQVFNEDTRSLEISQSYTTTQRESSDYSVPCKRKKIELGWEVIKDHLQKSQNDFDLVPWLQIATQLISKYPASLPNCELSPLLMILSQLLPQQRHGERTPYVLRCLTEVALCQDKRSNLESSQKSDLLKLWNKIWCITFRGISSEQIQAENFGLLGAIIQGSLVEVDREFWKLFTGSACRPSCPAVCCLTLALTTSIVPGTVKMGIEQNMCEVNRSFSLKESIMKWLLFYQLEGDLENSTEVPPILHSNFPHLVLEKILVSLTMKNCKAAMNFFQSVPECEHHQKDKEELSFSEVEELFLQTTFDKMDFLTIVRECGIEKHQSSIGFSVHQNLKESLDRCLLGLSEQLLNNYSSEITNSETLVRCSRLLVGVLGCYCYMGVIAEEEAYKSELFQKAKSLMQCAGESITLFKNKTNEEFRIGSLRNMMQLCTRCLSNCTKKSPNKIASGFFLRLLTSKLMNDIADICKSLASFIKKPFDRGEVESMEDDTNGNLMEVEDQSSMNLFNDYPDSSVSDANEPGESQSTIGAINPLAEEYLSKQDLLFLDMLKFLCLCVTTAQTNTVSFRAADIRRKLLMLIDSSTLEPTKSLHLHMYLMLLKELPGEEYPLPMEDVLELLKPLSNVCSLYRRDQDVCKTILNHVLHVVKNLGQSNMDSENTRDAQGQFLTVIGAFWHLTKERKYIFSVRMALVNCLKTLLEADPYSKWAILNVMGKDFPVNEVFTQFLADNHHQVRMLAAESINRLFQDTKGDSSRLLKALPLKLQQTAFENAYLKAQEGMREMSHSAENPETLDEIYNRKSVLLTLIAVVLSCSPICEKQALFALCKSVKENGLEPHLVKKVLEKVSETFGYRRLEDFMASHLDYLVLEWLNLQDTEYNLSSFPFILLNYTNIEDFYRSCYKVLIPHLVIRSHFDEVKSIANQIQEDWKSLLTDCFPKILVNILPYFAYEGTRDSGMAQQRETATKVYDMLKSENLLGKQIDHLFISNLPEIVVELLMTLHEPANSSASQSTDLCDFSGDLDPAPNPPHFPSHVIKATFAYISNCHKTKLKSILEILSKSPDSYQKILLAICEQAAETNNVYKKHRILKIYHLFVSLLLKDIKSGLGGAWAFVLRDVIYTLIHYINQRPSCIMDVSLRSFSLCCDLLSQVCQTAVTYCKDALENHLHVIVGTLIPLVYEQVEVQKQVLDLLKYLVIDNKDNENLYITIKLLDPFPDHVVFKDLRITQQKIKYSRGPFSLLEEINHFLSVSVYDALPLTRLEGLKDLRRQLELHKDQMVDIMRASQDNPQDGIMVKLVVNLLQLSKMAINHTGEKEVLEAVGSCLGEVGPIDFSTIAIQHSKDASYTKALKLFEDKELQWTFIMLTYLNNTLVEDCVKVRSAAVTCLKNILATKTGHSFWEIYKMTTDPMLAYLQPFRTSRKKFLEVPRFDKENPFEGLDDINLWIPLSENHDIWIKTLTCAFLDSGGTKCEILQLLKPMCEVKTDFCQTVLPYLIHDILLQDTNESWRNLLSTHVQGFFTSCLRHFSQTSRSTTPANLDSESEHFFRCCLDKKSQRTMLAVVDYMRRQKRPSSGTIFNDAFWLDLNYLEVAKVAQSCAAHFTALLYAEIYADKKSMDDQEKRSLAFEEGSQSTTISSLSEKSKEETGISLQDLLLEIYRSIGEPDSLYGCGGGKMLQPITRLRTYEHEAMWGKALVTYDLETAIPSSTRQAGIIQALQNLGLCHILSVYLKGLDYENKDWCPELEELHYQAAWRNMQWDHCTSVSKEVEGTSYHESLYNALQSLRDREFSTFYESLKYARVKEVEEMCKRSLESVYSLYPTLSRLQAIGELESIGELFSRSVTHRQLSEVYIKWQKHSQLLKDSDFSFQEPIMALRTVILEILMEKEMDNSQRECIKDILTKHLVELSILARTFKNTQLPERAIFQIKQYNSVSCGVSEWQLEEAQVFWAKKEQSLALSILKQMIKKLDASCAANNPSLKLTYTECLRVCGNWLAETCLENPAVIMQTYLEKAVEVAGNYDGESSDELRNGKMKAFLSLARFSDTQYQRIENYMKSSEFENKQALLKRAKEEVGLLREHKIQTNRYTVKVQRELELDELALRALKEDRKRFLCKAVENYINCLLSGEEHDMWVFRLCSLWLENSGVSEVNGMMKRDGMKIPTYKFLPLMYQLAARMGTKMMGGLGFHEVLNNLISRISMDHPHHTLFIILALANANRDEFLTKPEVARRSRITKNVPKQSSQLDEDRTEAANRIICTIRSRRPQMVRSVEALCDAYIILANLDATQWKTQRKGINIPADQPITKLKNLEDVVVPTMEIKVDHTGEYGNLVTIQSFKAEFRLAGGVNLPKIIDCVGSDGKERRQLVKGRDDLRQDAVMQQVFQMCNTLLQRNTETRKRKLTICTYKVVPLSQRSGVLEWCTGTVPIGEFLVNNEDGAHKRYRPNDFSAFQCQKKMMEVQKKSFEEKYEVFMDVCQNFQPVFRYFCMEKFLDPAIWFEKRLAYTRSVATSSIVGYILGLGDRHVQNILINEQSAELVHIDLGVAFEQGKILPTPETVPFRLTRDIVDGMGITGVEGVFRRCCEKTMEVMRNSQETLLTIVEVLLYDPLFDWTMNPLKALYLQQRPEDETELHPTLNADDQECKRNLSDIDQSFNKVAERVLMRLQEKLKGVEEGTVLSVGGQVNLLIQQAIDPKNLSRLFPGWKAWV

SMILES | IC50 (PI3K p110δ/p85α (human)) [µM] | IC50 (mTOR (human)) [µM] | IC50 (PI3K p110α/p85α (human)) [µM] | IC50 [1] [µM] | IC50 ([1]; 10 μM ATP, substrate p53) [µM] | IC50 (PI3K p110β/p85α (human); read-out: IC50 (PI3Kbeta)) [µM] | IC50 (PI3K (p120γ) (human)) [µM] | IC50 [2] [µM] | IC50 (PI3K p110β/p85α (human)) [µM]
COc1cc2ncc3c(c2cc1-c1cnn(C)c1)n(-c1c(F)cncc1OC)c(=O)n3C [Compound Example 15, 1-(3-Fluoro-5-methoxypyridin-4-yl)-7-methoxy-3-methyl-8-(1-methyl-1H-pyrazol-4-yl)-1,3-dihydroimidazo[4,5-c]-quinolin-2-one] | > 30 | > 30 | > 30 | < 0.001 | < 0.001 | > 30 | > 30 | < 0.2 | 
CCn1cc(-c2cc3c(cc2OC)ncc2c3n(-c3ncccc3F)c(=O)n2C)cn1 [Compound Example 24, 8-(1-Ethyl-1H-pyrazol-4-yl)-1-(3-fluoropyridin-2-yl)-7-methoxy-3-methyl-1,3-dihydroimidazo[4,5-c] quinolin-2-one] | > 30 | > 30 | > 30 | < 0.001 | < 0.001 | > 30 | > 30 | < 0.2 | 
CCc1cncc(F)c1-n1c(=O)n(C)c2cnc3cc(OC)c(-c4cnn(C)c4)cc3c21 [Compound Example 12, 1-(3-Ethyl-5-fluoropyridin-4-yl)-7-methoxy-3-methyl-8-(1-methyl-1H-pyrazol-4-yl)-1,3-dihydroimidazo[4,5-c]-quinolin-2-one] | > 30 | > 30 | > 30 | < 0.001 | < 0.001 | > 30 | > 30 | < 0.2 | 
COc1cc2ncc3c(c2cc1-c1cnn(C)c1)n(-c1ccncc1C)c(=O)n3C [Compound Example 40, 7-Methoxy-3-methyl-8-(1-methyl-1H-pyrazol-4-yl)-1-(3-methylpyridin-4-yl)-1,3-dihydroimidazo[4,5-c] quinolin-2-one] | > 30 | > 30 | > 30 | < 0.01 | < 0.01 | > 30 | > 30 | 0.2 to 1 | 
COc1cc2ncc3c(c2cc1-c1cn(C)nc1C)n(-c1ncc(F)cc1F)c(=O)n3C [Compound Example 11, 1-(3,5-Difluoropyridin-2-yl)-8-(1,3-dimethyl-1H-pyrazol-4-yl)-7-methoxy-3-methyl-1,3-dihydroimidazo[4,5-c]-quinolin-2-one] | > 30 | > 30 | > 30 | < 0.001 | < 0.001 | > 30 | > 30 | < 0.2 | 
COc1cc2ncc3c(c2cc1-c1cnn(C)c1)n(-c1ccncc1)c(=O)n3C [compound 58, 7-Methoxy-3-methyl-8-(1-methyl-1H-pyrazol-4-yl)-1-pyridin-4-yl-1,3-dihydro-imidazo[4,5-c]quinolin-2-one] | > 30 | > 30 | > 30 | < 0.01 | < 0.01 | > 30 | > 30 | 0.2 to 1 | 
COc1cc2ncc3c(c2cc1-c1cn[nH]c1)n(-c1c(C)cncc1F)c(=O)n3C [Compound Example 8, 1-(3-Fluoro-5-methylpyridin-4-yl)-7-methoxy-3-methyl-8-(1H-pyrazol-4-yl)-1,3-dihydroimidazo[4,5-c] quinolin-2-one] | > 30 | > 5 | > 30 | < 0.001 | < 0.001 | > 30 | > 30 | < 0.2 | 
COc1cc2ncc3c(c2cc1-c1cn[nH]c1)n(-c1ncc(C)cc1F)c(=O)n3C [Compound Example 20, 1-(3-Fluoro-5-methylpyridin-2-yl)-7-methoxy-3-methyl-8-(1H-pyrazol-4-yl)-1,3-dihydroimidazo[4,5-c] quinolin-2-one] | > 30 | > 30 | > 30 | < 0.001 | < 0.001 | > 30 | > 30 | < 0.2 | 
COc1cc2ncc3c(c2cc1-c1cnn(C)c1)n(-c1ccncc1OC)c(=O)n3C [Compound Example 28, 7-Methoxy-1-(3-methoxy-pyridin-4-yl)-3-methyl-8-(1-methyl-1H-pyrazol-4-yl)-1,3-dihydroimidazo[4,5-c] quinolin-2-one] | > 30 | > 30 | > 30 | < 0.01 | < 0.01 | > 30 | > 30 | < 0.2 | 
COc1cc2ncc3c(c2cc1-c1cn[nH]c1)n(-c1ncc(F)cc1F)c(=O)n3C [Example 6] | > 30 | > 30 | > 30 | < 0.001 | < 0.001 |  | > 30 | < 0.2 | > 30
COc1cc2ncc3c(c2cc1-c1cnn(C)c1)n(-c1cn[nH]c1)c(=O)n3C [Compound Example 53, 7-Methoxy-3-methyl-8-(1-methyl-1H-pyrazol-4-yl)-1-(1H-pyrazol-4-yl)-1,3-dihydroimidazo[4,5-c]-quinolin-2-one] | > 30 | > 30 | > 30 | < 0.01 | < 0.01 | > 30 | > 30 | 0.2 to 1 | 
CCn1cc(-c2cc3c(cc2OC)ncc2c3n(-c3c(C)cncc3F)c(=O)n2C)cn1 [Compound Example 38, 8-(1-Ethyl-1H-pyrazol-4-yl)-1-(3-fluoro-5-methylpyridin-4-yl)-7-methoxy-3-methyl-1,3-dihydroimidazo[4,5-c] quinolin-2-one] | > 30 | > 30 | > 30 | < 0.001 | < 0.001 | > 30 | > 30 | 0.2 to 1 | 
COc1cc2ncc3c(c2cc1-c1cnn(C)c1)n(-c1cnn(C)c1)c(=O)n3C [Compound Example 23, 7-Methoxy-3-methyl-1,8-bis-(1-methyl-1H-pyrazol-4-yl)-1,3-dihydroimidazo[4,5-c] quinolin-2-one] | > 30 | > 20 | > 20 | < 0.01 | < 0.01 | > 30 | > 30 | < 0.2 | 
